The text below walks through data of patent US11213522B2, “Autoimmune-induced glutamatergic receptor dysfunction methods and treatments” (SARAH HERZOG MEMORIAL HOSPITAL EZRAT NASHIM ASSOCIATION, priority 2013, dated 2022).

Experiment [1] concerns patient positive for anti-NR1 NMDAR antibodies. The experiment in a line: Digit Span Test (DST), forward and backward. The class given is in vivo, human. Conditions: post-6 weeks D-serine. As to the method: (§1) The trial consisted of two periods, starting with a 2 week lead-in/stabilization period (−2-0) following which the patient was entered in the second period of the study which consisted of a 6 week (0-6), open-label, fixed dose therapy phase. During this phase, the patient received adjuvant treatment with DSR, whose dose was increased from 1500 mg/day (week 1) to 2000 mg/day (weeks 2 and 3) to 3000 mg/day (weeks 4 and 5) and to 4000 mg/day (week 6). The doses of the ongoing medication received by the patient remained fixed throughout the study and no changes in medication were performed.
In addition, cognitive performance was assessed pre- and post DSR treatment. For this purpose, a 1.5-hour neurocognitive assessment battery (nine computerized and two paper/pencil tests) was employed that measures accuracy and speed of performance in major cognition domains, including attention/vigilance, planning, short-term and working memory, decision making, abstraction and mental flexibility. All the tests were formatted like games and puzzles, and were administered to the patient as part of the comprehensive neuropsychiatric assessment at baseline and the end of study. The neurocognitive battery included the 1) Test of Attentional Vigilance (TOAV, (Forbes, 1998, Journal of Clinical Psychology 54:461-476; Greenberg, 1993, Journal of Child Psychology and Psychiatry 34: 1019-30)); 2) Tower of London (TOL, (Shailice, 1982, Specific impairments of planning Philosophical Transactions of the Royal Society of London. Series B, Biological Sciences 298:199-209); 3-4) Digit Span Test (DST, forward and backward (Wechsler 1997, The Wechsler adult intelligence scale-III. San Antonio, Tex.: Psychological Corporation; Kaplan 1991, The WAIS-R as a neuropsychological instrument. San Antonio, Tex.: The Psychological Corporation; Lamar et al., 2007, Neuropsychologia 45:245-54; Lamar et al., 2008, Neuropsychologia 46:2597-601)); 5-6) Corsi Block Tapping Test (CBTT, forward and backward, (Corsi, 1972, Dissertation Abstracts International. 34:819B; Kessels et al., 2000, Applied Neuropsychology 7:252-58, Kessels et al., 2008, Assessment 15:426-34)); 7) Flanker Task (Erikson and Eriksen, 1974; Perception & Psychophysics 25: 249-63, Stins et. al., 2007, Advances in Cognitive Psychology 3:389-96); 8) Time Wall (Perez et al., 1987, Unified Tri-services cognitive performance assessment battery: review and methodology; DTIC Document ADA181697, http://www.dtic.mil/dtic/tr/fulltext/u2/a81697.pdf); and Wisconsin Card Sort Test (WCST, (Berg, 1948, J Gen Psychol39:15-22; Nelson, 1976, Cortex 12:313-24)). […]

Experiment [2] shares this test system. The experiment in a line: Time Wall. The experiment is classed as in vivo, human. The settings on record: post-6 weeks D-serine. Here is the method: as §1
In addition, cognitive performance was assessed pre- and post DSR treatment. For this purpose, a 1.5-hour neurocognitive assessment battery (nine computerized and two paper/pencil tests) was employed that measures accuracy and speed of performance in major cognition domains, including attention/vigilance, planning, short-term and working memory, decision making, abstraction and mental flexibility. All the tests were formatted like games and puzzles, and were administered to the patient as part of the comprehensive neuropsychiatric assessment at baseline and the end of study. […]

The mark [3] stands for this setting: pre-treatment subject unable to complete task.

As to `N[C@H](CO)C(=O)O` [D-serine], the “DST Forward Span Length (3-9)” value in experiment [1] (pre-treatment 6) is 7. For the same compound, the “DST Forward Number Correct (0-14)” value in experiment [1] (pre-treatment 8) was determined as 9. In experiment [1] (setting [3]), the “DST Backward Number Correct (0-14)” value is listed as 3 and the “DST Backward Span Length (3-9)” value is 4. In addition, the “Time Wall accuracy score, mean ± SD” value in experiment [2] (pre-treatment 0.056 ± 0.053) stood at 0.077 ± 0.051. In addition, in experiment [2] (pre-treatment 12), the “Time Wall correctly estimated trials, total (0-20)” value is on record as 6.
